Test results taken from patent publication US8562998B2, “Targeting of antigen presenting cells with immunonanotherapeutics” (President and Fellows of Harvard College, priority 2008, dated 2013).

System: anti-nicotine IgG
Assay: Anti-nicotine IgG titers in immunized mice (ELISA)
Type: in vivo, C57BL6 mice
Settings: immunized day 0, boosted after 2, 4 and 8 weeks

## CN1CCCC1c1cccnc1 (stereo not shown) [free nicotine, nicotine]
  production of nicotine antibodies: does not elicit the production of nicotine antibodies
